In ChEMBL document CHEMBL1139487, “Discovery of corticotropin releasing factor 2 receptor selective sauvagine analogues for treatment of skeletal muscle atrophy” (J Med Chem, 2005):

Columns and labels:
[1] = biological target: T1, Corticotropin-releasing factor receptor 1 (Mus musculus) (UniProt P35347); test: In vitro agonistic activity against mouse corticotropin releasing factor 1 receptor; assay type: functional
T1 sequence (whole entry): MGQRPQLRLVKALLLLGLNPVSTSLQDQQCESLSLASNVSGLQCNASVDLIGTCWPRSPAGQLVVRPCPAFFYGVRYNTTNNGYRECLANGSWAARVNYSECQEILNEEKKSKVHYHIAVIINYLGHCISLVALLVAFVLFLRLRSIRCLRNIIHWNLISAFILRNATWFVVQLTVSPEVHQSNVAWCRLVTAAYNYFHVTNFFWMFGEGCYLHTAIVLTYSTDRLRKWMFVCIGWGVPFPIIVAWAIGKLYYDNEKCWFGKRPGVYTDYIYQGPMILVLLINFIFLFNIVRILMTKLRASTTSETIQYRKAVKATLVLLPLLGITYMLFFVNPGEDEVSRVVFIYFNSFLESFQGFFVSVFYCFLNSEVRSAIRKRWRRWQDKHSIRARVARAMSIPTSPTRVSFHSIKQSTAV

[2] = biological target: Corticotropin-releasing factor receptor 2 (Mus musculus) (UniProt Q60748); test: In vitro agonistic activity against mouse corticotropin releasing factor 2 receptor; assay type: functional
[3] = species on record: Mus musculus; test: Selectivity ratio of EC50s for mouse corticotropin releasing factor receptors 1 and 2
[4] = biological target: Corticotropin-releasing factor receptor 2 (Mus musculus, UniProt Q60748); test: In vitro effective concentration for mouse corticotropin releasing factor 2 receptor
[5] = biological target: T2, Corticotropin-releasing factor receptor 1 (Mus musculus, UniProt P35347); test: In vitro effective concentration for mouse corticotropin releasing factor 1 receptor
T2 sequence (P35347 whole entry): T1 sequence (whole entry)

Sequence of Corticotropin-releasing factor receptor 2 (Mus musculus) (Q60748 whole entry): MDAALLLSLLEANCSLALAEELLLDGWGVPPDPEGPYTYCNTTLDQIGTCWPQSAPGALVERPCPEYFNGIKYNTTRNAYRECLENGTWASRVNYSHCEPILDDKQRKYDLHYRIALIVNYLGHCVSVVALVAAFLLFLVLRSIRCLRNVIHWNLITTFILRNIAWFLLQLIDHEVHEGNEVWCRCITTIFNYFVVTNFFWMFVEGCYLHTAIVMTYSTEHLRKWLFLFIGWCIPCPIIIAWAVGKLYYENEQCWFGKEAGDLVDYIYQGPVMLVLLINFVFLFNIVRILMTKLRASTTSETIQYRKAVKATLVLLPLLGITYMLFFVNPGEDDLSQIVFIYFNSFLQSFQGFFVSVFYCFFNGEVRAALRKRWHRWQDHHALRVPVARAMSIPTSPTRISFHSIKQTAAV
Sequence of Corticotropin-releasing factor receptor 2 (Q60748 whole entry): as above

SMILES | Emax [1] | Emax [2] | Selectivity [3] | EC50 [4] | EC50 [5]
CC[C@H](C)[C@H](NC(=O)[C@@H](NC(=O)[C@H](CC(=O)O)NC(=O)[C@H](CC(C)C)NC(=O)[C@H](CC(C)C)NC(=O)[C@H](CC(C)C)NC(=O)[C@H](CCCN=C(N)N)NC(=O)[C@H](CC(N)=O)NC(=O)[C@H](CC(N)=O)NC(=O)[C@H](C)NC(=O)[C@H](C)NC(=O)[C@H](CCC(N)=O)NC(=O)[C@H](CCC(N)=O)NC(=O)[C@H](CCCCN)NC(=O)[C@H](CCC(=O)O)NC(=O)[C@H](CCCCN)NC(=O)[C@H](CCC(=O)O)NC(=O)[C@H](CCC(N)=O)NC(=O)[C@H](CCCCN)NC(=O)[C@H](CCC(=O)O)NC(=O)[C@@H](NC(=O)[C@H](CCC(=O)O)NC(=O)[C@@H](NC(=O)[C@H](CCSC)NC(=O)[C@H](CCCCN)NC(=O)[C@H](CCCN=C(N)N)NC(=O)[C@H](CC(C)C)NC(=O)[C@H](CC(C)C)NC(=O)[C@@H](NC(=O)[C@H](Cc1ccc(O)cc1)NC(=O)[C@@H]1CCCN1C(=O)[C@H](CC(C)C)NC(=O)[C@H](CC(=O)O)NC(=O)[C@@H](NC(=O)[C@H](CO)NC(=O)[C@@H](NC(=O)[C@@H]1CCCN1C(=O)[C@@H]1CCCN1C(=O)CNC(=O)[C@@H]1CCC(=O)N1)[C@@H](C)CC)[C@@H](C)CC)[C@@H](C)O)[C@@H](C)CC)[C@@H](C)CC)[C@@H](C)O)C(=O)O | 99% | 100% | 21 | 8.8 nM | 189 nM
CC[C@H](C)[C@H](NC(=O)[C@@H](NC(=O)[C@H](CC(=O)O)NC(=O)[C@H](CC(C)C)NC(=O)[C@H](CC(C)C)NC(=O)[C@H](CC(C)C)NC(=O)[C@H](CCCN=C(N)N)NC(=O)[C@H](CC(N)=O)NC(=O)[C@H](CC(N)=O)NC(=O)[C@H](C)NC(=O)[C@H](C)NC(=O)[C@H](CCC(N)=O)NC(=O)[C@H](CCC(N)=O)NC(=O)[C@H](CCCCN)NC(=O)[C@H](CCC(=O)O)NC(=O)[C@H](CCCCN)NC(=O)[C@H](CCC(=O)O)NC(=O)[C@H](CCC(N)=O)NC(=O)[C@H](CCCCN)NC(=O)[C@H](CCC(=O)O)NC(=O)[C@@H](NC(=O)[C@H](CCC(=O)O)NC(=O)[C@@H](NC(=O)[C@H](CCSC)NC(=O)[C@H](CCCCN)NC(=O)[C@H](CCCN=C(N)N)NC(=O)[C@H](CC(C)C)NC(=O)[C@H](CC(C)C)NC(=O)[C@H](Cc1ccc(O)cc1)NC(=O)[C@H](C)NC(=O)[C@@H]1CCCN1C(=O)[C@H](CC(C)C)NC(=O)[C@H](CC(=O)O)NC(=O)[C@@H](NC(=O)[C@H](CO)NC(=O)[C@@H](NC(=O)[C@@H]1CCCN1C(=O)[C@@H]1CCCN1C(=O)CNC(=O)[C@@H]1CCC(=O)N1)[C@@H](C)CC)[C@@H](C)CC)[C@@H](C)CC)[C@@H](C)CC)[C@@H](C)O)C(=O)O | 95% | 98% | 30 | 20.2 nM | 606 nM
CC[C@H](C)[C@H](NC(=O)[C@@H](NC(=O)[C@H](CC(=O)O)NC(=O)[C@H](CC(C)C)NC(=O)[C@H](CC(C)C)NC(=O)[C@H](CC(C)C)NC(=O)[C@H](CCCN=C(N)N)NC(=O)[C@H](CC(N)=O)NC(=O)[C@H](CC(N)=O)NC(=O)[C@H](C)NC(=O)[C@H](C)NC(=O)[C@H](CCC(N)=O)NC(=O)[C@H](CCC(N)=O)NC(=O)[C@H](CCCCN)NC(=O)[C@H](CCC(=O)O)NC(=O)[C@H](CCCCN)NC(=O)[C@H](CCC(=O)O)NC(=O)[C@H](CCC(N)=O)NC(=O)[C@H](CCCCN)NC(=O)[C@H](CCC(=O)O)NC(=O)[C@@H](NC(=O)[C@H](CCC(=O)O)NC(=O)[C@@H](NC(=O)[C@H](CCSC)NC(=O)[C@H](CCCCN)NC(=O)[C@H](CCCN=C(N)N)NC(=O)[C@H](CC(C)C)NC(=O)[C@H](CC(C)C)NC(=O)[C@@H](NC(=O)[C@H](CC(C)C)NC(=O)[C@@H]1CCCN1C(=O)[C@H](CC(C)C)NC(=O)[C@H](CC(=O)O)NC(=O)[C@@H](NC(=O)[C@H](CO)NC(=O)[C@@H](NC(=O)[C@@H]1CCCN1C(=O)[C@@H]1CCCN1C(=O)CNC(=O)[C@@H]1CCC(=O)N1)[C@@H](C)CC)[C@@H](C)CC)[C@@H](C)CC)[C@@H](C)CC)[C@@H](C)CC)[C@@H](C)O)C(=O)O | 94% | 96% | 21 | 5 nM | 106 nM
CC[C@H](C)[C@H](NC(=O)[C@@H](NC(=O)[C@H](CC(=O)O)NC(=O)[C@H](CC(C)C)NC(=O)[C@H](CC(C)C)NC(=O)[C@H](CC(C)C)NC(=O)[C@H](CCCN=C(N)N)NC(=O)[C@H](CC(N)=O)NC(=O)[C@H](CC(N)=O)NC(=O)[C@H](C)NC(=O)[C@H](C)NC(=O)[C@H](CCC(N)=O)NC(=O)[C@H](CCC(N)=O)NC(=O)[C@H](CCCCN)NC(=O)[C@H](CCC(=O)O)NC(=O)[C@H](CCCCN)NC(=O)[C@H](CCC(=O)O)NC(=O)[C@H](CCC(N)=O)NC(=O)[C@H](CCCCN)NC(=O)[C@H](CCC(=O)O)NC(=O)[C@@H](NC(=O)[C@H](CCC(=O)O)NC(=O)[C@@H](NC(=O)[C@H](CCSC)NC(=O)[C@H](CCCCN)NC(=O)[C@H](CCCN=C(N)N)NC(=O)[C@H](CC(C)C)NC(=O)[C@H](CC(C)C)NC(=O)[C@H](Cc1ccccc1)NC(=O)[C@@H](NC(=O)[C@@H]1CCCN1C(=O)[C@H](CC(C)C)NC(=O)[C@H](CC(=O)O)NC(=O)[C@@H](NC(=O)[C@H](CO)NC(=O)[C@@H](NC(=O)[C@@H]1CCCN1C(=O)[C@@H]1CCCN1C(=O)CNC(=O)[C@@H]1CCC(=O)N1)[C@@H](C)CC)[C@@H](C)CC)[C@@H](C)O)[C@@H](C)CC)[C@@H](C)CC)[C@@H](C)O)C(=O)O | 64% | 87% | 49 | 19.2 nM | 943 nM
CC[C@H](C)[C@H](NC(=O)[C@@H](NC(=O)[C@H](CC(=O)O)NC(=O)[C@H](CC(C)C)NC(=O)[C@H](CC(C)C)NC(=O)[C@H](CC(C)C)NC(=O)[C@H](CCCN=C(N)N)NC(=O)[C@H](CC(N)=O)NC(=O)[C@H](CC(N)=O)NC(=O)[C@H](C)NC(=O)[C@H](C)NC(=O)[C@H](CCC(N)=O)NC(=O)[C@H](CCC(N)=O)NC(=O)[C@H](CCCCN)NC(=O)[C@H](CCC(=O)O)NC(=O)[C@H](CCCCN)NC(=O)[C@H](CCC(=O)O)NC(=O)[C@H](CCC(N)=O)NC(=O)[C@H](CCCCN)NC(=O)[C@H](CCC(=O)O)NC(=O)[C@@H](NC(=O)[C@H](CCC(=O)O)NC(=O)[C@@H](NC(=O)[C@H](CCSC)NC(=O)[C@H](CCCCN)NC(=O)[C@H](CCCN=C(N)N)NC(=O)[C@H](CC(C)C)NC(=O)[C@H](CC(C)C)NC(=O)[C@H](Cc1ccccc1)NC(=O)[C@H](Cc1ccccc1)NC(=O)[C@@H]1CCCN1C(=O)[C@H](CC(C)C)NC(=O)[C@H](CC(=O)O)NC(=O)[C@@H](NC(=O)[C@H](CO)NC(=O)[C@@H](NC(=O)[C@@H]1CCCN1C(=O)[C@@H]1CCCN1C(=O)CNC(=O)[C@@H]1CCC(=O)N1)[C@@H](C)CC)[C@@H](C)CC)[C@@H](C)CC)[C@@H](C)CC)[C@@H](C)O)C(=O)O | 81% | 92% | 16 | 3 nM | 48.1 nM
